From PubChem BioAssay AID200 (DTP/NCI, 2004)
Values joined by “and” are separate entries in the source; they are usually repeats but may differ in a detail not shown here. Identical values can stand only once. Inconclusive results and toxic doses are left out.

System: B6C3F1 mice, B16 melanoma ip, median survival T/C
Assay: NCI In Vivo Anticancer Drug Screen. Data for tumor model B16 Melanoma (intraperitoneal) in B6C3F1 mice
Details: endpoint: median survival time, schedule: Q01DX009 (ip), higher = longer survival
How it was run: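 Readout: survival or tumor size in treated mice relative to vehicle controls (T/C). Model uses transplantable tumors grown in mice.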

[1] = dose: 6.25 mg/kg/injection, vehicle: saline with Tween-80
[2] = dose: 12.5 mg/kg/injection, vehicle: saline with Tween-80
[3] = dose: 25.0 mg/kg/injection, vehicle: saline with Tween-80
[4] = dose: 50.0 mg/kg/injection, vehicle: saline with Tween-80
[5] = dose: 100.0 mg/kg/injection, vehicle: saline with Tween-80
[6] = dose: 100.0 mg/kg/injection, vehicle: saline
[7] = dose: 200.0 mg/kg/injection, vehicle: saline
[8] = dose: 25.0 mg/kg/injection, vehicle: Klucel (hydroxypropylcellulose) (HPC)
[9] = dose: 1.56 mg/kg/injection, vehicle: saline with Tween-80
[10] = dose: 3.12 mg/kg/injection, vehicle: saline with Tween-80
[11] = dose: 50.0 mg/kg/injection, vehicle: saline
[12] = dose: 50.0 mg/kg/injection, vehicle: Klucel (hydroxypropylcellulose) (HPC)
[13] = dose: 100.0 mg/kg/injection, vehicle: Klucel (hydroxypropylcellulose) (HPC)
[14] = dose: 12.5 mg/kg/injection, vehicle: Klucel (hydroxypropylcellulose) (HPC)
[15] = dose: 12.5 mg/kg/injection, vehicle: saline
[16] = dose: 25.0 mg/kg/injection, vehicle: saline

Q: COc1cc(/C=C/[N+](=O)[O-])cc(Br)c1OC was tested. Which T/C (dose: 0.75 mg/kg/injection, vehicle: saline with Tween-80) did it give?
A: The T/C was 102 % of control.

Q: And the T/C (dose: 1.5 mg/kg/injection, vehicle: saline with Tween-80)?
A: The T/C was 112 % of control.

Q: What about the T/C (dose: 3.0 mg/kg/injection, vehicle: saline with Tween-80) of the same molecule?
A: Its T/C is 98 % of control.

Q: What about the T/C (dose: 6.0 mg/kg/injection, vehicle: saline with Tween-80) of the same molecule?
A: Its T/C is 97 % of control.

Q: What about the T/C [1] of the same molecule?
A: Its T/C is 91 % of control.

Q: What about the T/C (dose: 12.0 mg/kg/injection, vehicle: saline with Tween-80) of the same molecule?
A: The T/C was 93 % of control.

Q: How did the T/C [1] turn out when Nc1nc2nc[nH]c2c(=O)[nH]1 was run?
A: Its T/C is 116 % of control.

Q: What about the T/C [2] of the same molecule?
A: Its T/C is 105 % of control.

Q: And the T/C [3]?
A: The T/C was 104 % of control.

Q: And the T/C [4]?
A: The T/C was 102 % of control.

Q: And the T/C [5]?
A: The T/C was 90 % of control.

Q: What does the source list for CNc1c(NC)n(C)c(=O)n(C)c1=O?
A: T/C [6]: 92 % of control; T/C [7]: 100 % of control; T/C (dose: 400.0 mg/kg/injection, vehicle: saline): 96 % of control

Q: For CCC(=O)[O][Bi]([c]1ccccc1)[c]1ccccc1, which T/C [8] is on record?
A: The T/C was 92 % of control.

Q: For O=C(CCCN1CCC(C(O)c2ccc(F)cc2)CC1)c1ccc(F)cc1 (stereo unspecified), which T/C [9] is on record?
A: Its T/C is 92 % of control.

Q: What about the T/C [10] of the same molecule?
A: Its T/C is 96 % of control.

Q: And the T/C [1]?
A: Its T/C is 103 % of control.

Q: What about the T/C [2] of the same molecule?
A: The T/C was 92 % of control.

Q: For CCOC(=O)c1ccc(NN=NCCF)cc1, which T/C (dose: 3.0 mg/kg/injection, vehicle: distilled water + Tween-80) is on record?
A: Its T/C is 123 % of control and 102 % of control.

Q: And the T/C (dose: 3.12 mg/kg/injection, vehicle: distilled water + Tween-80)?
A: Its T/C is 123 % of control.

Q: And the T/C (dose: 6.0 mg/kg/injection, vehicle: distilled water + Tween-80)?
A: Its T/C is 112 % of control and 98 % of control.

Q: What about the T/C (dose: 12.0 mg/kg/injection, vehicle: distilled water + Tween-80) of the same molecule?
A: Its T/C is 87 % of control and 103 % of control.

Q: What about the T/C (dose: 12.5 mg/kg/injection, vehicle: distilled water + Tween-80) of the same molecule?
A: The T/C was 155 % of control.

Q: What about the T/C (dose: 24.0 mg/kg/injection, vehicle: distilled water + Tween-80) of the same molecule?
A: The T/C was 108 % of control and 101 % of control.

Q: What about the T/C (dose: 25.0 mg/kg/injection, vehicle: distilled water + Tween-80) of the same molecule?
A: Its T/C is 198 % of control.

Q: What about the T/C (dose: 48.0 mg/kg/injection, vehicle: distilled water + Tween-80) of the same molecule?
A: The T/C was 96 % of control and 102 % of control.

Q: Which T/C (dose: 1.56 mg/kg/injection, vehicle: DMSO) does the source give for COc1cc2c(oc(=O)c3cc(C)cc(OC)c32)c2c(C3OC(C)C(O)C(C)(O)C3O)ccc(O)c12 (stereo unspecified) here?
A: Its T/C is 94 % of control and 103 % of control.

Q: And the T/C (dose: 3.12 mg/kg/injection, vehicle: DMSO)?
A: Its T/C is 109 % of control and 107 % of control.

Q: What about the T/C (dose: 6.0 mg/kg/injection, vehicle: DMSO) of the same molecule?
A: Its T/C is 88 % of control.

Q: What about the T/C (dose: 6.25 mg/kg/injection, vehicle: DMSO) of the same molecule?
A: Its T/C is 119 % of control and 96 % of control and 104 % of control.

Q: And the T/C (dose: 12.0 mg/kg/injection, vehicle: DMSO)?
A: Its T/C is 96 % of control.

Q: And the T/C (dose: 12.5 mg/kg/injection, vehicle: DMSO)?
A: The T/C was 121 % of control.

Q: Which results are given for C[Si](C)(CCl)N[Si](C)(C)CCl?
A: T/C [2]: 100 % of control; T/C [3]: 104 % of control; T/C [4]: 99 % of control; T/C [5]: 96 % of control

Q: With CC(=O)NO as the molecule, how does the T/C (dose: 50.0 mg/kg/injection, vehicle: water) read?
A: The T/C was 89 % of control.

Q: And the T/C (dose: 100.0 mg/kg/injection, vehicle: water)?
A: Its T/C is 102 % of control.

Q: What about the T/C (dose: 200.0 mg/kg/injection, vehicle: water) of the same molecule?
A: Its T/C is 100 % of control.

Q: And the T/C (dose: 400.0 mg/kg/injection, vehicle: water)?
A: Its T/C is 112 % of control.

Q: For O=C1CCC(=O)N1CO, which T/C [11] is on record?
A: Its T/C is 121 % of control.

Q: And the T/C [6]?
A: The T/C was 117 % of control.

Q: What does the source list for CCCCCCC/C=C/C(=O)OC1C(OC2C(OC(CCCCCCC)CC(=O)OC(CCCCCCC)CC(=O)O)OC(C)C(O)C2O)OC(C)C(O)C1O (stereo unspecified)?
A: T/C (dose: 0.78 mg/kg/injection, vehicle: Klucel (hydroxypropylcellulose) (HPC)): 103 % of control; T/C (dose: 1.56 mg/kg/injection, vehicle: Klucel (hydroxypropylcellulose) (HPC)): 87 % of control; T/C (dose: 3.12 mg/kg/injection, vehicle: Klucel (hydroxypropylcellulose) (HPC)): 94 % of control

Q: How did the T/C [8] turn out when NCCCCC(NC(=O)OCC1c2ccccc2-c2ccccc21)C(=O)O (stereo unspecified) was run?
A: The T/C was 92 % of control.

Q: And the T/C [12]?
A: Its T/C is 101 % of control.

Q: What about the T/C [13] of the same molecule?
A: Its T/C is 97 % of control and 100 % of control.

Q: What does the source list for CC(=O)[O][Pb]([O]C(C)=O)([c]1ccccc1)[c]1ccccc1?
A: T/C (dose: 6.25 mg/kg/injection, vehicle: Klucel (hydroxypropylcellulose) (HPC)): 88 % of control; T/C [14]: 90 % of control; T/C [8]: 88 % of control; T/C [12]: 93 % of control

Q: For CC(C)(C)Oc1ccc(CC(NC(=O)OCC2c3ccccc3-c3ccccc32)C(=O)O)cc1 (stereo unspecified), which T/C [12] is on record?
A: The T/C was 107 % of control.

Q: And the T/C [13]?
A: The T/C was 108 % of control.

Q: What about the T/C (dose: 200.0 mg/kg/injection, vehicle: Klucel (hydroxypropylcellulose) (HPC)) of the same molecule?
A: The T/C was 105 % of control.

Q: What does the source list for N#CC(C#N)=NNc1ccc2cn[nH]c2c1?
A: T/C [14]: 108 % of control; T/C [8]: 100 % of control; T/C [12]: 106 % of control; T/C [13]: 102 % of control

Q: What does the source list for COc1cc(NCCCCCCCNC(C)C)c2nccc(C)c2c1?
A: T/C (dose: 3.12 mg/kg/injection, vehicle: saline): 103 % of control; T/C (dose: 6.25 mg/kg/injection, vehicle: saline): 96 % of control; T/C [15]: 103 % of control; T/C [16]: 103 % of control

Q: Which results are given for O=C1OC(=O)[C@H]2[C@@H]1[C@H]1C=C[C@@H]2OC1=O?
A: T/C [15]: 102 % of control; T/C [16]: 101 % of control; T/C [11]: 106 % of control; T/C [6]: 102 % of control; T/C [7]: 99 % of control

Q: With N#Cc1ccc(NN=O)nc1 as the molecule, how does the T/C (dose: 3.12 mg/kg/injection, vehicle: water) read?
A: Its T/C is 102 % of control.

Q: What about the T/C (dose: 3.13 mg/kg/injection, vehicle: water) of the same molecule?
A: Its T/C is 119 % of control.

Q: What about the T/C (dose: 4.5 mg/kg/injection, vehicle: saline) of the same molecule?
A: The T/C was 117 % of control.

Q: What about the T/C (dose: 6.25 mg/kg/injection, vehicle: water) of the same molecule?
A: The T/C was 113 % of control and 122 % of control.

Q: And the T/C (dose: 7.5 mg/kg/injection, vehicle: saline)?
A: The T/C was 108 % of control.

Q: What about the T/C (dose: 20.83 mg/kg/injection, vehicle: saline) of the same molecule?
A: Its T/C is 123 % of control.

Q: What about the T/C (dose: 34.72 mg/kg/injection, vehicle: saline) of the same molecule?
A: The T/C was 120 % of control.

Q: Which results are given for Cc1cc(NCCN(C(C)C)C(C)C)nc(/N=C(\N)Nc2ccc(Cl)c(C(F)(F)F)c2)n1?
A: T/C (dose: 1.25 mg/kg/injection, vehicle: Klucel (hydroxypropylcellulose) (HPC)): 111 % of control; T/C (dose: 2.5 mg/kg/injection, vehicle: Klucel (hydroxypropylcellulose) (HPC)): 106 % of control; T/C (dose: 5.0 mg/kg/injection, vehicle: Klucel (hydroxypropylcellulose) (HPC)): 100 % of control; T/C (dose: 10.0 mg/kg/injection, vehicle: Klucel (hydroxypropylcellulose) (HPC)): 86 % of control; T/C (dose: 20.0 mg/kg/injection, vehicle: Klucel (hydroxypropylcellulose) (HPC)): 96 % of control; T/C (dose: 40.0 mg/kg/injection, vehicle: Klucel (hydroxypropylcellulose) (HPC)): 98 % of control

Q: With CCCCCCCCCCCCN1C(C)=CS/C1=C\C=C\c1scc(C)[n+]1CCCCCCCCCCCC as the molecule, how does the T/C (dose: 0.78 mg/kg/injection, vehicle: saline with Tween-80) read?
A: The T/C was 99 % of control and 108 % of control.

Q: What about the T/C [9] of the same molecule?
A: The T/C was 99 % of control and 105 % of control.

Q: What about the T/C [10] of the same molecule?
A: Its T/C is 108 % of control.

Q: O=C(CN1CCOCC1)Nc1nc(-c2ccc(Cl)cc2)cs1 was tested. Which T/C [2] did it give?
A: The T/C was 105 % of control.

Q: And the T/C [3]?
A: Its T/C is 94 % of control.

Q: And the T/C [4]?
A: Its T/C is 96 % of control.

Q: And the T/C [5]?
A: The T/C was 103 % of control.

Q: What about the T/C (dose: 200.0 mg/kg/injection, vehicle: saline with Tween-80) of the same molecule?
A: Its T/C is 98 % of control.

Q: Which T/C (dose: 400.0 mg/kg/injection, vehicle: Klucel (hydroxypropylcellulose) (HPC)) does the source give for Cc1ccc(NCC2(/N=C/c3ccccc3)OC(CO)C(O)C2O)cc1 (stereo unspecified) here?
A: The T/C was 161 % of control.
